Consider five compounds from US12209102B2, “Heterocyclic compounds and uses thereof” (Kumquat Biosciences Inc., priority 2022, dated 2025).

For experiment [1], the target named is T1, K-Ras G12S (Homo sapiens, UniProt P01116, G12S).
T1 construct: made in house; host or cells: E. coli BL21 (DE3)
In words: HTRF resonance energy transfer assay, K-Ras G12S / SOS1 interaction. The experiment is classed as biochemical. The following applies: HTRF assay of Example 5; read-out: IC50 against K-Ras G12S. The essentials:
(§1)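 Compounds, tested in duplicate at 10 μM down to 0.01 μM, were read after about 10 min or more by HTRF as the 665/620 nm emission ratio (337 nm excitation) to derive IC50. This ratio reports FRET between an anti-GST-Eu donor on GST-K-Ras (wild-type or mutant) and an anti-6His-XL665 acceptor on His-hSOS1. Buffer: ~5 mM HEPES pH 7.4, 150 mM NaCl, 1 mM DTT, 0.05% BSA, 0.0025% Igepal.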
In general terms: Time-resolved FRET reads energy transfer from a long-lived donor to a nearby acceptor.

Experiment [2] concerns A549 cells. In words: Ras cellular assay, growth of cells with K-Ras G12S mutation (CellTiter-Glo). The experiment is classed as cell-based. Particulars: Homo sapiens, cell growth, Example 9, G12S mutation, read-out: IC50 against A549 cells. The gist of the method: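 Growth inhibition IC50 values come from four-parameter fits of CellTiter-Glo luminescence, read about 6 days after compound addition. G12S-mutant A549 cells (e.g. 800/well, RPMI-1640 + 10% heat-inactivated FBS) were plated in tissue-culture-treated or ultra-low-attachment 384-well format. Dosing began the following day with serial dilutions, e.g. 10 points, 3-fold.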
(In general: In ATP-based viability assays light output follows the ATP content of the culture.)

Experiment [3] relates to SW620 cells. In words: Ras cellular assay, growth of cells with K-Ras G12V mutation (CellTiter-Glo). The following applies: Homo sapiens, SW-620; cell growth, Example 9, G12V mutation; read-out: IC50 against SW620 cells. The experiment is classed as cell-based. The gist of the method:
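IC50 values came from a four-parameter fit of CellTiter-Glo viability, read roughly 6 days after dosing with e.g. a 10-point threefold dilution series. G12V-mutant SW620 cells (e.g. 800 per well) had been plated the previous day in RPMI-1640/10% heat-inactivated FBS, on tissue culture-treated or ultra-low attachment plates.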

The target in experiment [4] is T2, K-Ras WT (Homo sapiens, UniProt P01116).
T2 construct: made in house; host or cells: E. coli BL21 (DE3)
In words: HTRF resonance energy transfer assay, K-Ras WT / SOS1 interaction. The experiment is classed as biochemical. The following applies: HTRF assay of Example 5; read-out: IC50 against K-Ras WT. The gist of the method:
as §1

In experiment [5] the target is T3, K-Ras G12V (Homo sapiens, UniProt P01116, G12V).
T3 construct: made in house; host or cells: E. coli BL21 (DE3)
In words: HTRF resonance energy transfer assay, K-Ras G12V / SOS1 interaction. The experiment is classed as biochemical. The following applies: HTRF assay of Example 5; read-out: IC50 against K-Ras G12V. The gist of the method:
as §1

In experiment [6] the target is T4, K-Ras G12D (Homo sapiens, UniProt P01116, G12D).
T4 construct: made in house; host or cells: E. coli BL21 (DE3)
In words: HTRF resonance energy transfer assay, K-Ras G12D / SOS1 interaction. In kind it is biochemical. Particulars: HTRF assay of Example 5; read-out: IC50 against K-Ras G12D. The essentials: as §1

T4 sequence (P01116 1-188 isoform P01116-2 G12D): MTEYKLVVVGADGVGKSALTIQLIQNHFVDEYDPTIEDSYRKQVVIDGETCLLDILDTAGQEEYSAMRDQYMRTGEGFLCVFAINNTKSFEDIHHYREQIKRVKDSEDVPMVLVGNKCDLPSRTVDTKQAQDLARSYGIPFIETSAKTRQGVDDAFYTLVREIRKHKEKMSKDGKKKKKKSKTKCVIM
T2 sequence (P01116 1-188 isoform P01116-2): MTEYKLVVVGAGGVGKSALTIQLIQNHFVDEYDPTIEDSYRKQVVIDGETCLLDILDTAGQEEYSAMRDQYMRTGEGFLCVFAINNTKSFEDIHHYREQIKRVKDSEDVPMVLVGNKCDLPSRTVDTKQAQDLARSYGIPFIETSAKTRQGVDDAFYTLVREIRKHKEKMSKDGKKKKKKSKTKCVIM
T3 sequence (P01116 1-188 isoform P01116-2 G12V): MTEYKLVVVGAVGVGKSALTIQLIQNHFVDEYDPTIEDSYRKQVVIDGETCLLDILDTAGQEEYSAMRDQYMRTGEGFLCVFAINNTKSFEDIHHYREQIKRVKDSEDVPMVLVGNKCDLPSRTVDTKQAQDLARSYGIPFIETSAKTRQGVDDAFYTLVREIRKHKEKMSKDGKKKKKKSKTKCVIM
T1 sequence (P01116 1-188 isoform P01116-2 G12S): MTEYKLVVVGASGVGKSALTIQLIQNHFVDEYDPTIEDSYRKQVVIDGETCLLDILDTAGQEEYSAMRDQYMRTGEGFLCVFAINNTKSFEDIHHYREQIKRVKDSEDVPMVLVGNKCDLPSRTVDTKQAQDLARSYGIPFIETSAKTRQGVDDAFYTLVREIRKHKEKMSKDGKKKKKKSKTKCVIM

Turning to `COC1CN(C(=O)N2CCC(N3C[C@H](C)Oc4c(Cl)c(-c5ccc(F)c6sc(N)c(C#N)c56)c(F)c5nc(OC[C@@]67CCCN6C[C@H](F)C7)nc3c45)CC2)C1` [Compound 935, 2-amino-4-((6S)-8-chloro-10-fluoro-2-(((2R,7aS)-2-fluorotetrahydro-1H-pyrrolizin-7a(5H)-yl)methoxy)-4-(1-(3-methoxyazetidine-1-carbonyl)piperidin-4-yl)-6-methyl-5,6-dihydro-4H-[1,4]oxazepino[5,6,7-de]quinazolin-9-yl)-7-fluorobenzo[b]thiophene-3-carbonitrile], the IC50 in experiment [1] is under 100 nM; in experiment [2], under 5000 nM; in experiment [3], under 5000 nM; in experiment [4], under 100 nM; in experiment [5] it was under 100 nM; in experiment [6], under 100 nM.

With `COCCN1CCC(N2CCOc3c(Cl)c(-c4ccc(F)c5sc(N)c(C#N)c45)c(F)c4nc(OC[C@@]56CCCN5C[C@H](F)C6)nc2c34)C1` (stereo partly drawn) [Compound 936, 2-amino-4-(8-chloro-10-fluoro-2-(((2R,7aS)-2-fluorotetrahydro-1H-pyrrolizin-7a(5H)-yl)methoxy)-4-(1-(2-methoxyethyl)pyrrolidin-3-yl)-5,6-dihydro-4H-[1,4]oxazepino[5,6,7-de]quinazolin-9-yl)-7-fluorobenzo[b]thiophene-3-carbonitrile], the concentration for half-maximal inhibition (IC50) in experiment [1] was under 100 nM; in experiment [2], under 5000 nM; in experiment [3], under 5000 nM; in experiment [4] it was under 100 nM; in experiment [5], under 100 nM; in experiment [6], under 100 nM.

On to `C#Cc1c(F)ccc2cc(O)cc(-c3nc4c5c(nc(OC[C@@]67CCCN6C[C@H](F)C7)nc5c3F)N(c3ccccc3)CCO4)c12` [Compound 948, 5-ethynyl-6-fluoro-4-(4-fluoro-2-(((2R,7aS)-2-fluorotetrahydro-1H-pyrrolizin-7a(5H)-yl)methoxy)-10-phenyl-9,10-dihydro-8H-7-oxa-1,3,6,10-tetraazacyclohepta[de]naphthalen-5-yl)naphthalen-2-ol], for which the half-maximal inhibitory concentration (IC50) in experiment [1] was under 100 nM; in experiment [2], under 5000 nM; in experiment [3], under 5000 nM; in experiment [4] it was under 100 nM; in experiment [5], under 100 nM; in experiment [6], under 100 nM.

With `N#Cc1c(N)sc2c(F)ccc(-c3c(Cl)c4c5c(nc(OC[C@@]67CCCN6C[C@H](F)C7)nc5c3F)N(C3CCN(C(=O)C(F)Cl)C3)CCO4)c12` (stereo partly drawn) [Compound 949, 2-amino-4-(8-chloro-4-(1-(2-chloro-2-fluoroacetyl)pyrrolidin-3-yl)-10-fluoro-2-(((2R,7aS)-2-fluorotetrahydro-1H-pyrrolizin-7a(5H)-yl)methoxy)-5,6-dihydro-4H-[1,4]oxazepino[5,6,7-de]quinazolin-9-yl)-7-fluorobenzo[b]thiophene-3-carbonitrile], the half-inhibitory concentration (IC50) in experiment [1] is under 100 nM; in experiment [2], under 5000 nM; in experiment [3], under 5000 nM; in experiment [4] it was under 100 nM; in experiment [5], under 100 nM; in experiment [6], under 100 nM.

Take `N#Cc1c(N)sc2c(F)ccc(-c3c(Cl)c4c5c(nc(OC[C@@]67CCCN6C[C@H](F)C7)nc5c3F)N(C3CC(F)(F)C3)CCO4)c12` [Compound 956, 2-amino-4-(8-chloro-4-(3,3-difluorocyclobutyl)-10-fluoro-2-(((2R,7aS)-2-fluorotetrahydro-1H-pyrrolizin-7a(5H)-yl)methoxy)-5,6-dihydro-4H-[1,4]oxazepino[5,6,7-de]quinazolin-9-yl)-7-fluorobenzo[b]thiophene-3-carbonitrile]: the 50% inhibitory concentration (IC50) in experiment [1] was under 100 nM; in experiment [2] it was under 5000 nM; in experiment [3], under 5000 nM; in experiment [4], under 100 nM; in experiment [5] it was under 100 nM; in experiment [6], under 100 nM.

A word on the IC50: it is the concentration that gives 50% inhibition.
